Assay [1] relates to PAF-induced rabbit platelet aggregation. Briefly: PAF-induced rabbit platelet aggregation. The format is cell-based, rabbit (New Zealand white). Conditions: Oryctolagus cuniculus, read-out: IC50, inhibition of PAF-induced rabbit platelet aggregation. The procedure:
Pharmacology Example 1: PAF-induced rabbit platelet aggregation
Blood was collected from the ear artery of a male New Zealand white rabbit and mixed with 3.8% sodium citrate in a 9:1 volume ratio. Platelet rich plasma (PRP) was obtained by centrifugation of the blood at 150 g for 10 min at room temperature. The number of platelets was adjusted to 3×10^8 platelets/ml with platelet poor plasma. Platelet aggregation was monitored by continuous recording of light transmission in a dual-channel aggregometer (Chrono-Log 560-VS) coupled with a two channel recorder (Chrono-Log 707). Stirred PRP was treated with various concentrations of the test compounds or vehicle (0.5% DMSO) for 2 min and then PAF(5×10^-9 M) was added to induce platelet aggregation.
Inhibition values were calculated by comparing the extent of aggregation obtained in the presence of the vehicle alone (0.5% DMSO) and in the presence of a test compound. Log concentration-response curves were generated and the IC50 values were determined by regression analysis.
Table 1 lists results from this assay for inhibition of PAF-induced rabbit platelet aggregation for illustrative examples of the compounds of this invention.

Assay [2] concerns Ag-induced bronchoconstriction. The experiment in a line: Ag-induced bronchoconstriction in the guinea pig. Type of assay: in vivo, guinea pig (Hartley strain). Conditions: for ED50: Cavia porcellus, iv, 10 min, read-out: ID50, Ag-induced bronchoconstriction. The procedure:
Pharmacology Example 3: Ag-induced bronchoconstriction
All experiments utilized male guinea pigs (Hartley strain), weighing 350 to 500 g. The animal was passively sensitized with rabbit anti-chicken egg albumin (1.3 mg/kg), 17-24 hrs before ovaibumin challenge. Passively sensitized animals were anesthetized with ethyl carbamate 1.5 g/kg, i.p.). An intratracheal cannula was inserted into trachea and indwelling catheters were inserted into the right carotid artery and left jugular vein. The animals were ventilated with a small animal respirator (UGO BASILE 7025, 70 breaths/min, 1 ml/stroke/100 g). To monitor dead or not, mean arterial pressure was measured continuously with a pressure transducer (Physiological Pressure Transducer, MICRON INSTRUMENT MP-15) connected to an amplifier (COULBOURN INSTRUMENT 572-25) and recorder (COULBOURN INSTRUMENT R14-18). The rate of bronchoconstriction was measured as an increase in lung overflow with a bronchospasm transducer (UGO BASILE 7020) from a side arm off the tracheal cannula, and expressed as a percentage of maximum broncoconstriction obtained by clamping off the tracheal cannular. Test compounds or vehicle (0.5% DMSO) were administered through the cannula into the jugular vein and ovalbumin (1.0 mg/kg, i.v.) was administered 10 minutes later. Bronchoconstriction response was compared to that obtained with control group treated with vehicle. Percent inhibition was calculated for each dose. If necessary, log dose-response curves were generated and the ID50 values were determined by regression analysis.

Where [3] appears, read: 0.1 mg/kg, jugular vein, ovalbumin 1.0 mg/kg i.v. 10 minutes later.
Setting [4] is: 0.5 mg/kg, jugular vein, ovalbumin 1.0 mg/kg i.v. 10 minutes later.
Where [5] appears, read: 1.0 mg/kg, jugular vein, ovalbumin 1.0 mg/kg i.v. 10 minutes later.
The mark [6] stands for this setting: jugular vein, ovalbumin 1.0 mg/kg i.v. 10 minutes later.

Structures are written as SMILES. pIC50: −log10 of the molar value. Like-named read-outs stand apart in the source and are kept apart here.

The record followed here is patent US5541183A, “Ginkgolide derivatives” (priority 1993, dated 1996).

A word on the pIC50: it is the negative decadic logarithm of the IC50, by convention in mol/L.

For `COc1c(C)cnc(COC2C(=O)OC3OC45C(=O)OC6CC(C(C)(C)C)C32C64C(O)C2OC(=O)C(C)C25O)c1C` (centres unmarked) [Example 97, 10-(4-methoxy-3,5-dimethyl-2-pyridinyl) -methoxy-Ginkgolide B], in assay [1] (rabbit PRP, PAF 5×10^-9 M), the pIC50 is 7.41. The figures for the “% inhibition of Ag-induced bronchoconstriction” value (from here on “% inhibition”) in assay [2] (setting [3]), in assay [2] (setting [4]) and in assay [2] (setting [5]) were 30%, 68% and 100%, respectively. In assay [2] (setting [6]), the ED50 amounted to 0.42 mg/kg.

`CC1C(=O)OC2C(O)C34C5CC(C(C)(C)C)C36C(OC(=O)C6OCc3ccccn3)OC4(C(=O)O5)C12O` (centres unmarked) [Example 99, 10-(2-pyridinyl)-methoxy-Ginkgolide B]: the pIC50 in assay [1] was 7.51. Also, the “% inhibition” value is 42% in assay [2] (setting [3]), 73% in assay [2] (setting [4]) and 100% in assay [2] (setting [5]). Also, the ED50 in assay [2] stood at 0.31 mg/kg.

For `Cc1cnc(COC2C(=O)OC3OC45C(=O)OC6CC(C(C)(C)C)C32C64C(O)C2OC(=O)C(C)C25O)c(C)c1N` (centres unmarked) [Example 103, 10-(3,5-dimethyl-4-amino-2-pyridinyl)-methoxy-Ginkgolide B], the pIC50 in assay [1] (rabbit PRP, PAF 5×10^-9 M) is 7.06. Further, the “% inhibition” value is recorded as 10% in assay [2] (setting [3]), 62% in assay [2] (setting [4]) and 97% in assay [2] (setting [5]). Also, in assay [2] (setting [6]), the ED50 is 0.48 mg/kg.

Turning to `Cc1cnc(COC2C(=O)OC3OC45C(=O)OC6CC(C(C)(C)C)C32C64C(O)C2OC(=O)C(C)C25O)c(C)c1NC(=O)c1ccccc1` (centres unmarked) [Example 105, 10-(4-benzoylamino-3,5-dimethyl-2-pyridinyl)-methoxy-Ginkgolide B], the pIC50 in assay [1] (rabbit PRP, PAF 5×10^-9 M) was 7.49.

With `Cc1cnc(COC2C(=O)OC3OC45C(=O)OC6CC(C(C)(C)C)C32C64C(O)C2OC(=O)C(C)C25O)c(C)c1N(O)C(=O)c1ccccc1` (centres unmarked) [Example 106, 10-(4-N-benzoyl-N-hydroxyamino-3,5-dimethyl-2-pyridinyl)-methoxy Ginkgolide B], in assay [1] (rabbit PRP, PAF 5×10^-9 M), the pIC50 is 7.33.

For the compound `CC1C(=O)OC2C(O)C34C5CC(C(C)(C)C)C36C(OC(=O)C6OCc3ccc(Cl)nc3)OC4(C(=O)O5)C12O` (centres unmarked) [Example 107, 10-(6-chloro-3-pyridinyl)-methoxy-Ginkgolide B], in assay [1] (rabbit PRP, PAF 5×10^-9 M), the negative logarithm of the IC50 (pIC50) is 6.80.

Turning to `CC1C(=O)OC2C(O)C34C5CC(C(C)(C)C)C36C(OC(=O)C6OCc3cccnc3)OC4(C(=O)O5)C12O` (centres unmarked) [Example 108, 10-(3-pyridinyl)-methoxy-Ginkgolide B], the pIC50 in assay [1] (rabbit PRP, PAF 5×10^-9 M) was 6.87.

In the case of `CC1C(=O)OC2C(O)C34C5CC(C(C)(C)C)C36C(OC(=O)C6OCc3ccncc3)OC4(C(=O)O5)C12O` (centres unmarked) [Example 109, 10-(4-pyridinyl)-methoxy-Ginkgolide B], in assay [1] (rabbit PRP, PAF 5×10^-9 M), the pIC50 is 6.91.

Consider `CCOc1ccnc(COC2C(=O)OC3OC45C(=O)OC6CC(C(C)(C)C)C32C64C(O)C2OC(=O)C(C)C25O)c1` (centres unmarked) [Example 110], for which the pIC50 in assay [1] (rabbit PRP, PAF 5×10^-9 M) is 6.80.

Consider `CC1C(=O)OC2C(O)C34C5CC(C(C)(C)C)C36C(OC(=O)C6OCc3cc([N+](=O)[O-])ccn3)OC4(C(=O)O5)C12O` (centres unmarked) [Example 111, 10-(4-nitro-2-myridinyl)-methoxy Ginkgolide B], for which, in assay [1] (rabbit PRP, PAF 5×10^-9 M), the pIC50 was 6.97.

`CCCOc1ccc(C)nc1COC1C(=O)OC2OC34C(=O)OC5CC(C(C)(C)C)C21C53C(O)C1OC(=O)C(C)C14O` (centres unmarked) [Example 112]: the pIC50 in assay [1] (rabbit PRP, PAF 5×10^-9 M) was 6.91.

Turning to `CC1C(=O)OC2C(O)C34C5CC(C(C)(C)C)C36C(OC(=O)C6OCc3cc(NO)ccn3)OC4(C(=O)O5)C12O` (centres unmarked) [Example 113, 10-(2-(4-hydroxyaminopyridinyl)-methoxy)-Ginkgolide B], the pIC50 in assay [1] (rabbit PRP, PAF 5×10^-9 M) was 6.95.

For `COCCOCOc1ccc(COC2C(=O)OC3OC45C(=O)OC6CC(C(C)(C)C)C32C64C(O)C2OC(=O)C(C)C25O)nc1` (centres unmarked) [Example 114], the pIC50 in assay [1] is 6.86.

Regarding `CC1C(=O)OC2C(O)C34C5CC(C(C)(C)C)C36C(OC(=O)C6OCCBr)OC4(C(=O)O5)C12O` (centres unmarked) [Example 116, 10-(2'-bromoethoxy)-Ginkgolide B], the pIC50 in assay [1] (rabbit PRP, PAF 5×10^-9 M) is 6.95.

On to `CC1C(=O)OC2C(O)C34C5CC(C(C)(C)C)C36C(OC(=O)C6OCCI)OC4(C(=O)O5)C12O` (centres unmarked) [Example 117, 10-(2'-iodoethoxy)-Ginkgolide B], for which, in assay [1], the pIC50 is 7.27.

For `CC1C(=O)OC2C(O)C34C5CC(C(C)(C)C)C36C(OC(=O)C6OCCN3CCCCC3)OC4(C(=O)O5)C12O` (centres unmarked) [Example 118, 10-(2'-(1"-piperidinyl)-ethoxy)-Ginkgolide B], in assay [1] (rabbit PRP, PAF 5×10^-9 M), the pIC50 was 7.33.

Consider `CC1C(=O)OC2C(O)C34C5CC(C(C)(C)C)C36C(OC(=O)C6OCCN3CCOCC3)OC4(C(=O)O5)C12O` (centres unmarked) [Example 119, 10-(2'-(1"-morpholinyl)-ethoxy)-Ginkgolide B], for which the pIC50 in assay [1] (rabbit PRP, PAF 5×10^-9 M) was 7.27.

As to `CC1C(=O)OC2C(O)C34C5CC(C(C)(C)C)C36C(OC(=O)C6OCCn3cncn3)OC4(C(=O)O5)C12O` (centres unmarked) [Example 120, 10-(2'-(1"-(1",2",4"-triazolyl)-ethoxy))-Ginkgolide B], the pIC50 in assay [1] (rabbit PRP, PAF 5×10^-9 M) was 7.21.

Take `CC1C(=O)OC2C(O)C34C5CC(C(C)(C)C)C36C(OC(=O)C6OCCN3CCNCC3)OC4(C(=O)O5)C12O` (centres unmarked) [Example 121, 10-(2'-(1"-piperazinyl)-ethoxy)-Ginkgolide B]: the pIC50 in assay [1] (rabbit PRP, PAF 5×10^-9 M) is 7.24.

Take `CC1C(=O)OC2C(O)C34C5CC(C(C)(C)C)C36C(OC(=O)C6OCCN3CCCC3)OC4(C(=O)O5)C12O` (centres unmarked) [Example 122, 10-(2'-(1"-pyrrolidinyl)-ethoxy)-Ginkgolide B]: the pIC50 in assay [1] (rabbit PRP, PAF 5×10^-9 M) is 7.25.
